Measurements: patent publication US10760110B2, “Antibiotic testing and screening system” (priority 2017, dated 2020)
≈ marks a conversion by molar mass, not a printed value. Like-named read-outs stand apart in the source and are kept apart here.

Experiments:
Details in all cases: Klebsiella pneumoniae
[1] = tested on: K. pneumoniae NVT1001 and its ΔompK35/36 and/or ΔramR mutants; test: Etest MIC, OmpK35/36 loss and AcrAB-TolC overexpression (ΔramR) strains (Table 6); format: cell-based, Klebsiella pneumoniae
How it was run: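 Ceftazidime and cefotaxime were tested by CLSI broth microdilution on the blaOXA-48 pACYC177 transformant of NVT1001, using CLSI 2017 breakpoints. Parent, porin-deleted (ΔompK35/36) and ΔramR strains were tested by Etest, with values between two-fold dilutions rounded up.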

[2] = tested on: K. pneumoniae NVT1001 ΔramRΔompK35/36 mutant and its revertants; test: Etest MIC, ΔramRΔompK35/36 mutant and its revertants (Table 7); format: cell-based
[3] = tested on: K. pneumoniae NVT1001 strains with carbapenemase plasmids; test: Etest MIC of β-lactams, OmpK35/36 loss, ΔramR and/or carbapenemase (Table 9); format: cell-based, Klebsiella pneumoniae
How it was run: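 Cloned resistance genes in pACYC177 or pACYC184 were electroporated into K. pneumoniae NVT1001. MICs were determined by Etest and rounded up to the next two-fold value. Ceftazidime and cefotaxime against the blaOXA-48 construct were also tested by CLSI broth microdilution, with breakpoints from CLSI 2017 (cephalothin CLSI 2015, moxifloxacin EUCAST 2017).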

CCO/N=C(\C(=O)N[C@@H]1C(=O)N2C(C(=O)[O-])=C(Sc3nc(-c4cc[n+](C)cc4)cs3)CS[C@H]12)c1nsc(N)n1 [Ceftaroline]
MIC ([1]; WT, NVT1001, read-out: MIC): 0.25 µg/mL (≈ 0.413 µM)
MIC ([1]; Δ35, ΔompK35 mutant): 0.25 µg/mL (≈ 0.413 µM)
MIC ([1]; Δ35/36, ΔompK35/36 mutant): 1 µg/mL (≈ 1.65 µM)
MIC ([1]; Δ36, ΔompK36 mutant): 0.5 µg/mL (≈ 0.827 µM)
MIC ([1]; ΔramR mutant): 1 µg/mL (≈ 1.65 µM)
MIC ([1]; ΔramRΔ35, ΔramRΔompK35 mutant): 1 µg/mL (≈ 1.65 µM)
MIC ([1]; ΔramRΔ35/36, ΔramRΔompK35/36 mutant): 4 µg/mL (≈ 6.61 µM)
MIC ([1]; ΔramRΔ36, ΔramRΔompK36 mutant): 4 µg/mL (≈ 6.61 µM)
MIC ([2]; ΔramRΔompK35/36::ompK35/36 revertant): 1 µg/mL
MIC ([2]; ΔramRΔompK35/36::ompK35 revertant): 4 µg/mL
MIC ([2]; ΔramRΔompK35/36::ompK36 revertant): 1 µg/mL
MIC ([2]; ΔramRΔompK35/36::ramR revertant): 1 µg/mL
MIC ([2]; ΔramRΔompK35/36::ramR::ompK35/36 revertant): 0.25 µg/mL
MIC ([2]; ΔramRΔompK35/36::ramR::ompK35 revertant): 0.5 µg/mL
MIC ([2]; ΔramRΔompK35/36::ramR::ompK36 revertant): 0.5 µg/mL
MIC ([2]; ΔramRΔompK35/36 mutant): 4 µg/mL
MIC ([3]; IMP-8 on pACYC177, WT (NVT1001), read-out: MIC): 64 µg/mL
MIC ([3]; IMP-8 on pACYC177, Δ35 (ΔompK35 mutant)): 64 µg/mL
MIC ([3]; IMP-8 on pACYC177, Δ35/36 (ΔompK35/36 mutant)): > 256 µg/mL
MIC ([3]; IMP-8 on pACYC177, Δ36 (ΔompK36 mutant)): 64 µg/mL
MIC ([3]; IMP-8 on pACYC177, ΔramR mutant): 32 µg/mL
MIC ([3]; IMP-8 on pACYC177, ΔramRΔ35 (ΔramRΔompK35 mutant)): 64 µg/mL
MIC ([3]; IMP-8 on pACYC177, ΔramRΔ35/36 (ΔramRΔompK35/36 mutant)): 128 µg/mL
MIC ([3]; IMP-8 on pACYC177, ΔramRΔ36 (ΔramRΔompK36 mutant)): 64 µg/mL
MIC ([3]; KPC-2 on pACYC177, WT (NVT1001), read-out: MIC): 256 µg/mL
MIC ([3]; KPC-2 on pACYC177, Δ35 (ΔompK35 mutant)): > 256 µg/mL
MIC ([3]; KPC-2 on pACYC177, Δ35/36 (ΔompK35/36 mutant)): > 256 µg/mL
MIC ([3]; KPC-2 on pACYC177, Δ36 (ΔompK36 mutant)): > 256 µg/mL
MIC ([3]; KPC-2 on pACYC177, ΔramR mutant): > 256 µg/mL
MIC ([3]; KPC-2 on pACYC177, ΔramRΔ35 (ΔramRΔompK35 mutant)): > 256 µg/mL
MIC ([3]; KPC-2 on pACYC177, ΔramRΔ35/36 (ΔramRΔompK35/36 mutant)): > 256 µg/mL
MIC ([3]; KPC-2 on pACYC177, ΔramRΔ36 (ΔramRΔompK36 mutant)): > 256 µg/mL
MIC ([3]; KPC-3 on pACYC177, WT (NVT1001), read-out: MIC): 256 µg/mL
MIC ([3]; KPC-3 on pACYC177, Δ35 (ΔompK35 mutant)): 256 µg/mL
MIC ([3]; KPC-3 on pACYC177, Δ35/36 (ΔompK35/36 mutant)): > 256 µg/mL
MIC ([3]; KPC-3 on pACYC177, Δ36 (ΔompK36 mutant)): > 256 µg/mL
MIC ([3]; KPC-3 on pACYC177, ΔramR mutant): 256 µg/mL
MIC ([3]; KPC-3 on pACYC177, ΔramRΔ35 (ΔramRΔompK35 mutant)): 256 µg/mL
MIC ([3]; KPC-3 on pACYC177, ΔramRΔ35/36 (ΔramRΔompK35/36 mutant)): > 256 µg/mL
MIC ([3]; KPC-3 on pACYC177, ΔramRΔ36 (ΔramRΔompK36 mutant)): > 256 µg/mL
MIC ([3]; NDM-1 on pACYC177, WT (NVT1001), read-out: MIC): > 256 µg/mL
MIC ([3]; NDM-1 on pACYC177, Δ35 (ΔompK35 mutant)): > 256 µg/mL
MIC ([3]; NDM-1 on pACYC177, Δ35/36 (ΔompK35/36 mutant)): > 256 µg/mL
MIC ([3]; NDM-1 on pACYC177, Δ36 (ΔompK36 mutant)): > 256 µg/mL
MIC ([3]; NDM-1 on pACYC177, ΔramR mutant): > 256 µg/mL
MIC ([3]; NDM-1 on pACYC177, ΔramRΔ35 (ΔramRΔompK35 mutant)): > 256 µg/mL
MIC ([3]; NDM-1 on pACYC177, ΔramRΔ35/36 (ΔramRΔompK35/36 mutant)): > 256 µg/mL
MIC ([3]; NDM-1 on pACYC177, ΔramRΔ36 (ΔramRΔompK36 mutant)): > 256 µg/mL
MIC ([3]; OXA-48 on pACYC177, WT (NVT1001), read-out: MIC): 8 µg/mL
MIC ([3]; OXA-48 on pACYC177, Δ35 (ΔompK35 mutant)): 8 µg/mL
MIC ([3]; OXA-48 on pACYC177, Δ35/36 (ΔompK35/36 mutant)): 32 µg/mL
MIC ([3]; OXA-48 on pACYC177, Δ36 (ΔompK36 mutant)): 8 µg/mL
MIC ([3]; OXA-48 on pACYC177, ΔramR mutant): 8 µg/mL
MIC ([3]; OXA-48 on pACYC177, ΔramRΔ35 (ΔramRΔompK35 mutant)): 8 µg/mL
MIC ([3]; OXA-48 on pACYC177, ΔramRΔ35/36 (ΔramRΔompK35/36 mutant)): 16 µg/mL
MIC ([3]; OXA-48 on pACYC177, ΔramRΔ36 (ΔramRΔompK36 mutant)): 8 µg/mL
MIC ([3]; VIM-1 on pACYC177, WT (NVT1001), read-out: MIC): 256 µg/mL
MIC ([3]; VIM-1 on pACYC177, Δ35 (ΔompK35 mutant)): > 256 µg/mL
MIC ([3]; VIM-1 on pACYC177, Δ35/36 (ΔompK35/36 mutant)): > 256 µg/mL
MIC ([3]; VIM-1 on pACYC177, Δ36 (ΔompK36 mutant)): > 256 µg/mL
MIC ([3]; VIM-1 on pACYC177, ΔramR mutant): > 256 µg/mL
MIC ([3]; VIM-1 on pACYC177, ΔramRΔ35 (ΔramRΔompK35 mutant)): > 256 µg/mL
MIC ([3]; VIM-1 on pACYC177, ΔramRΔ35/36 (ΔramRΔompK35/36 mutant)): > 256 µg/mL
MIC ([3]; VIM-1 on pACYC177, ΔramRΔ36 (ΔramRΔompK36 mutant)): > 256 µg/mL
MIC ([3]; no supplemental plasmid, WT (NVT1001), read-out: MIC): 0.25 µg/mL
MIC ([3]; no supplemental plasmid, Δ35 (ΔompK35 mutant)): 0.25 µg/mL
MIC ([3]; no supplemental plasmid, Δ35/36 (ΔompK35/36 mutant)): 1 µg/mL
MIC ([3]; no supplemental plasmid, Δ36 (ΔompK36 mutant)): 0.5 µg/mL
MIC ([3]; no supplemental plasmid, ΔramR mutant): 1 µg/mL
MIC ([3]; no supplemental plasmid, ΔramRΔ35 (ΔramRΔompK35 mutant)): 1 µg/mL
MIC ([3]; no supplemental plasmid, ΔramRΔ35/36 (ΔramRΔompK35/36 mutant)): 4 µg/mL
MIC ([3]; no supplemental plasmid, ΔramRΔ36 (ΔramRΔompK36 mutant)): 4 µg/mL
